Experimental data as given in US9604996B2 (Bayer Pharma Aktiengesellschaft, priority 2013, dated 2017).

What was measured:
[1] = tested on: IL-6 release by human fibroblast cell line LL29; assay: NECA-induced IL-6 release by LL29 fibroblasts (ELISA); assay type: cell-based; conditions: NECA 10 μM, 24 hours incubation, IL-6 ELISA of supernatant, in some cases means, rounded to two significant digits
Description: B-2. Measurement of NECA-Induced IL-6 Release by LL29 Fibroblasts
Stimulation of fibroblasts with adenosine or the adenosine analog 5′-N-ethylcarboxamidoadenosine (NECA) leads to release of the pro-inflammatory and pro-fibrotic cytokine IL-6 which can be prevented by inhibition of the A2b receptor.
Accordingly, confluent cells of the human fibroblast cell line LL29 were treated with the test substances and stimulated with NECA (10 μM). After an incubation time of 24 hours, the cell supernatant is removed and human IL-6 in the cell supernatant is determined by ELISA (Quantikine® IL6 ELISA, R&D Systems, Minneapolis, USA).

[2] = biological target: T1, human adenosine A2b receptor (Homo sapiens, UniProt P29275); assay: Cellular reporter gene (CRE-luciferase) A2b receptor antagonist assay in recombinant CHO-K1 cells stimulated with NECA; assay type: cell-based; conditions: recombinant CHO-K1 cell line, co-incubation with EC50 concentration of NECA, 3 hours, in some cases means, rounded to two significant digits
T1 construct: expressed in transfected cells; host or cells: CHO-K1 (Chinese Hamster Ovary) with CRE-luciferase reporter
T1 sequence (P29275 1-332): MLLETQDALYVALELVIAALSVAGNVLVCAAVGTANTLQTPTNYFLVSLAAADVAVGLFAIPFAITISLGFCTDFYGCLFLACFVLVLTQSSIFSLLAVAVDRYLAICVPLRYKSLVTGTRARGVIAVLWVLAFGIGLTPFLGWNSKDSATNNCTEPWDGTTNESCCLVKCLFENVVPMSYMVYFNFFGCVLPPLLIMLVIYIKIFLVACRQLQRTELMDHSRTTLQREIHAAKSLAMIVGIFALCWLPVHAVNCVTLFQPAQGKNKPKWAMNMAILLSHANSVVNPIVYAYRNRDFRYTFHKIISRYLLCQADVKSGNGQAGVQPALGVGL
Summary of the method: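 CHO-K1 cells expressing human A2b receptor with a CRE-driven firefly luciferase reporter, co-incubated with test compound and NECA at its same-day EC50 concentration. Luminescence read 3 hours after NECA addition.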

IC50 [2] [nM]	Compound	IC50 [1] [nM]
67	Cc1c(C(=O)N2CCNC(=O)C2)sc2c1c(=O)n(CCc1cccnc1)c(=O)n2CCC(F)(F)F [Example 33, 5-Methyl-6-[(3-oxopiperazin-1-yl)carbonyl]-3-[2-(pyridin-3-yl)ethyl]-1-(3,3,3-trifluoropropyl)thieno[2,3-d]pyrimidine-2,4(1H,3H)-dione]	140
120	CCn1c(=O)c2c(C)c(C(=O)N3CCNC(=O)C3)sc2n(CCC(F)(F)F)c1=O [Example 35, 3-Ethyl-5-methyl-6-[(3-oxopiperazin-1-yl)carbonyl]-1-(3,3,3-trifluoropropyl)thieno[2,3-d]pyrimidine-2,4(1H,3H)-dione]	250
26	O=C1CN(C(=O)c2sc3c(c2C(F)(F)F)c(=O)n(CCc2ccccc2)c(=O)n3CCC(F)(F)F)CCN1 [Example 41, 6-[(3-Oxopiperazin-1-yl)carbonyl]-3-(2-phenylethyl)-5-(trifluoromethyl)-1-(3,3,3-trifluoropropyl)thieno[2,3-d]pyrimidine-2,4(1H,3H)-dione]	29

The next lines start with the compound.

Compound	IC50 [2] [nM]	IC50 [1] [nM]
Cc1c(C(=O)N2CCC(O)CC2)sc2c1c(=O)n(CCc1ccncc1)c(=O)n2CCC(F)(F)F [Example 54, 6-[(4-Hydroxypiperidin-1-yl)carbonyl]-5-methyl-3-[2-(pyridin-4-yl)ethyl]-1-(3,3,3-trifluoropropyl)thieno[2,3-d]pyrimidine-2,4(1H,3H)-dione]	76	330
CCn1c(=O)c2c(C)c(C(=O)N3CCC(O)(CO)CC3)sc2n(CCC(F)(F)F)c1=O [Example 74, 3-Ethyl-6-{[4-hydroxy-4-(hydroxymethyl)piperidin-1-yl]carbonyl}-5-methyl-1-(3,3,3-trifluoropropyl)thieno[2,3-d]pyrimidine-2,4(1H,3H)-dione]	110	250
CCc1c(C(=O)N2CCC(C)(O)CC2)sc2c1c(=O)n(CC)c(=O)n2CCC(F)(F)F [Example 88, 3,5-Diethyl-6-[(4-hydroxy-4-methylpiperidin-1-yl)carbonyl]-1-(3,3,3-trifluoropropyl)thieno[2,3-d]pyrimidine-2,4(1H,3H)-dione]	8.7	9
CCc1c(C(=O)N2CCC(O)(CO)CC2)sc2c1c(=O)n(CC)c(=O)n2CCC(F)(F)F [Example 89, 3,5-Diethyl-6-{[4-hydroxy-4-(hydroxymethyl)piperidin-1-yl]carbonyl}-1-(3,3,3-trifluoropropyl)thieno[2,3-d]pyrimidine-2,4(1H,3H)-dione]	35	48
